In one experiment the target is T1, Exodeoxyribonuclease V (Escherichia coli (strain K12), UniProt P04993+P07648+P08394).
T1 sequence (P04993 whole entry): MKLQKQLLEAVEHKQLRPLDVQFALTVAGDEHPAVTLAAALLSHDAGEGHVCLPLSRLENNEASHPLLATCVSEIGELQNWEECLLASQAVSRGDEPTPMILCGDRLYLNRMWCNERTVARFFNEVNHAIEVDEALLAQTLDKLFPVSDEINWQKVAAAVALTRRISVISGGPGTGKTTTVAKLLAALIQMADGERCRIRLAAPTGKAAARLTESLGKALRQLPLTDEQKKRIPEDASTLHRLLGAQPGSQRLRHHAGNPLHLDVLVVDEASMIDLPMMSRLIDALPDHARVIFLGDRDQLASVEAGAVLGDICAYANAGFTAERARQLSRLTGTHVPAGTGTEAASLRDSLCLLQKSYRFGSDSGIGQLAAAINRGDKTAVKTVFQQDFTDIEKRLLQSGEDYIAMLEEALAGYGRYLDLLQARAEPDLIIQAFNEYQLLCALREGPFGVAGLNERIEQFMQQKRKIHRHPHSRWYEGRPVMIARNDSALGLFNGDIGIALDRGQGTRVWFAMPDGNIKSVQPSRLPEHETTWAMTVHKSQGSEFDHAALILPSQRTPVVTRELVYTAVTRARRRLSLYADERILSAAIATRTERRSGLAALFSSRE
T1 sequence (P07648 whole entry): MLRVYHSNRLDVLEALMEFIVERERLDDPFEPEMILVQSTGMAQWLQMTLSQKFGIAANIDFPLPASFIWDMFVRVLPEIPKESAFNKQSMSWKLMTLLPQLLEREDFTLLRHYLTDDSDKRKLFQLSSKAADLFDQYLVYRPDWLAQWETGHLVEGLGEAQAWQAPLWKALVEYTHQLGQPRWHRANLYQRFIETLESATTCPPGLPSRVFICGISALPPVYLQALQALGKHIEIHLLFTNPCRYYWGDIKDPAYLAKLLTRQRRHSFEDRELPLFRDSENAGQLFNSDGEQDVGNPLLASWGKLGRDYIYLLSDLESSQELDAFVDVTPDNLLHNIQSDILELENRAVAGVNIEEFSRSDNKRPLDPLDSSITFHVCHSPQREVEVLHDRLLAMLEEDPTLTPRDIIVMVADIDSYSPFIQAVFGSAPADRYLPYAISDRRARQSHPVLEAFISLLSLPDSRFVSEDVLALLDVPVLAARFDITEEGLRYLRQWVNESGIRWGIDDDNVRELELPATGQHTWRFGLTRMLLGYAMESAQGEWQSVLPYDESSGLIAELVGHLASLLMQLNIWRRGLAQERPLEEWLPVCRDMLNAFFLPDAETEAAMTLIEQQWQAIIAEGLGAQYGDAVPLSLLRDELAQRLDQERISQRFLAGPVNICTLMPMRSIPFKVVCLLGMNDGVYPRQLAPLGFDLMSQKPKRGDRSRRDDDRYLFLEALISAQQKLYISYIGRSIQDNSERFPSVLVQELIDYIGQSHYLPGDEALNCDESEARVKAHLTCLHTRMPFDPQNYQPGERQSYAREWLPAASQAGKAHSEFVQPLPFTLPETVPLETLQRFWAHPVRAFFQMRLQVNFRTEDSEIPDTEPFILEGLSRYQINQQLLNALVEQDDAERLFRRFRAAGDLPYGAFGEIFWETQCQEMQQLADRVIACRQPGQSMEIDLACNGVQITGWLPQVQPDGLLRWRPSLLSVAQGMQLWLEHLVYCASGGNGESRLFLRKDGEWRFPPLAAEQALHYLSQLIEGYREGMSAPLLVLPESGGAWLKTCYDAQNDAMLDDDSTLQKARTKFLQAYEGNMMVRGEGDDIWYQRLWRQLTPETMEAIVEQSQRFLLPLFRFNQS
T1 sequence (P08394 whole entry): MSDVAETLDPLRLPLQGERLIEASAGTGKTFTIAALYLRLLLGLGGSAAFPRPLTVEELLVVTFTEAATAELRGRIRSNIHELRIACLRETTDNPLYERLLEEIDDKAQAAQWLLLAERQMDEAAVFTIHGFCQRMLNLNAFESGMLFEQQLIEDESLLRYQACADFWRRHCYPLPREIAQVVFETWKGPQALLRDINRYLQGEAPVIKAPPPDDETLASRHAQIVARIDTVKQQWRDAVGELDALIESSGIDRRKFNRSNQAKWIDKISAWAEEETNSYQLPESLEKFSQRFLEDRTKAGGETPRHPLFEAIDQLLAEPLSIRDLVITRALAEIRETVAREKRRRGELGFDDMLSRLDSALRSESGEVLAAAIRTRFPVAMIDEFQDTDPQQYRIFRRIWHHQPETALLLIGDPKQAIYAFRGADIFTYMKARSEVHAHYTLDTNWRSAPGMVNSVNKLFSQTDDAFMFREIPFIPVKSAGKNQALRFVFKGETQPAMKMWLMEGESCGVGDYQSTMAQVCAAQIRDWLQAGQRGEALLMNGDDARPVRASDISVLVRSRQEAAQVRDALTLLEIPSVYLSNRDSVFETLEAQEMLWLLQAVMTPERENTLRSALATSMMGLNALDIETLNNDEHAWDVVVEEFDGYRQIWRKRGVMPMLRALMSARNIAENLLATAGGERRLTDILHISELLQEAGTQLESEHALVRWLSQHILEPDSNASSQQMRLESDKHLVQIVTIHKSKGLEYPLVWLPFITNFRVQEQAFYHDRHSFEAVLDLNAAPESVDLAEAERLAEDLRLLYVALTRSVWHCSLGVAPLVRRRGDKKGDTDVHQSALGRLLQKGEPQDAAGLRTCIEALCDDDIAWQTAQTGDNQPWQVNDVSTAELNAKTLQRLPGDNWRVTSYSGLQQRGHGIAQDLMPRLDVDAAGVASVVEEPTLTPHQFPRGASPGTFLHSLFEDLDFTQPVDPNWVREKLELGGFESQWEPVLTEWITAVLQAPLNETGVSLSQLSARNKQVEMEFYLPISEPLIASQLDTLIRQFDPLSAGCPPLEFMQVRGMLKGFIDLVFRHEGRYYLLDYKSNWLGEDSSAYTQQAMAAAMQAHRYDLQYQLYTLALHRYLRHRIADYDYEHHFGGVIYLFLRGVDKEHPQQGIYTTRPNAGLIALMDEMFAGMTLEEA
The experiment can be described thus: E. coli RecBCD inhibitors, dose response, counter-screen for AddAB inhibitor project, absorbance, V66 E. coli, mutant T4 phage (AID 492957). The format is functional, cell-based, Escherichia coli str. K-12 substr. MG1655.

In experiment [1] the target is Intestinal-type alkaline phosphatase (Homo sapiens, UniProt P09923). As to the kind of experiment: human intestinal alkaline phosphatase activators, dose response, biochemical, luminescence, uHTS hits (AID 463120). In kind it is functional.
Chain of Intestinal-type alkaline phosphatase (P09923 whole entry): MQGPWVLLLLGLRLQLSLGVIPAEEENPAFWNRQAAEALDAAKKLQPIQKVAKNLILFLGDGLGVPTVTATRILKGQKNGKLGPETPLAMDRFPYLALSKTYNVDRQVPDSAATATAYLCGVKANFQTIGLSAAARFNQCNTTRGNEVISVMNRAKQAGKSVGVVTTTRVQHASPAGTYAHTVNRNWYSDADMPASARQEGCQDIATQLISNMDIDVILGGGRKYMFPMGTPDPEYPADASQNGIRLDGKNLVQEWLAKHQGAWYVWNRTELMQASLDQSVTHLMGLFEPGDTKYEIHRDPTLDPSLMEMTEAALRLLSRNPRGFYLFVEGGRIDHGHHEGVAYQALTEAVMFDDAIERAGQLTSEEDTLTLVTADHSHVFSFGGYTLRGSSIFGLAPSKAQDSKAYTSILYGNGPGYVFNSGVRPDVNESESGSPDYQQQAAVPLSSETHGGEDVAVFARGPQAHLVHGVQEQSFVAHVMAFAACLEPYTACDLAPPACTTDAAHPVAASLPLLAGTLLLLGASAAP
Experiment [2] in a line: Counterscreen for AddAB inhibitors: absorbance-based bacterial cell-based high throughput dose response assay for inhibitors of bacterial viability. [Related pubchem assays (depositor defined):AID435030, AID449728, AID449731, AID488942, AID488955, AID488956]. The format is functional. A general note: The purpose of a counterscreen is to sort out artefacts and off-target activity.

For another experiment, the system named is HT-1080. The experiment can be described thus: cytotoxicity in HT1080 fibrosarcoma cells, cell-based, fluorescence readout (AID 620). The format is functional. Conditions: Homo sapiens.

Activity calls are given as the source filed them.

As a reminder, the IC50 is the concentration needed to halve the response being measured. The term EC50 denotes the concentration needed to bring the measured effect to its halfway point. Take `O=C(/C=C/c1cccs1)NC(=S)NNC(=O)c1ccccc1O`: the IC50 is 114 µM (inactive) at Exodeoxyribonuclease V and 109 µM (inactive) in experiment [2]. For the same compound, in experiment [1], the concentration for a half-maximal effect (EC50) is 8.8 µM (active).
Consider `CC(=O)N(Cc1ccc(F)cc1)C1=C(NCCc2ccccc2)C(=O)c2ccccc2C1=O`, for which the EC50 in the experiment with HT-1080 is 15.6 µM (active).
In the case of `CCCCC(=O)NC(c1ccccc1)c1ccc2cccnc2c1O` (stereo unspecified), the IC50 (at Exodeoxyribonuclease V; in experiment [2]) was > 118 µM (inactive) in each case.

The values are drawn from ChEMBL document CHEMBL1201862, “PubChem BioAssay data set” (2004).
